Laboratory results reported in article PMC6611794, “Development of a high-throughput strategy for discovery of potent analogues of antibiotic lysocin E” (Nature Communications, 2019).
In brackets after ≈: the same amount, converted by molar mass. Read-outs that look alike come from different tables or passages of the source. Blank lines part the entries; values can stand above or below the molecule they belong to. Where a SMILES comes first, the peptide text is derived from it. Bridges are numbered along the chain shown (N, C = ends). [ ]: non-standard residue; d: D form. The star is where a group is joined. Hexanoyl(3R-OH,5-Me) = CC(C)C[C@@H](O)CC(=O)*; dNMeF = CN[C@H](Cc1ccccc1)C(=O)O

Assays:
[1] = test system: Staphylococcus aureus Smith ATCC 13709; assay type: cell-based
Description: (§1) Antimicrobial activity assay of bead-derived peptides. […]
(§2) plate was added DMSO (1 µL/well). […]
(§3) precipitation of the grown cells was examined.
(§4) Evaluation of antimicrobial spectra of peptides. The MIC assay was performed according to the Clinical and Laboratory Standards Institute protocols. The antimicrobial activities of the peptides were measured […]
(§5) Soy Broth or Müller Hinton Broth agar plates. Bacterial inoculum was prepared by direct suspension of the […]
(§6) and incubated at 37 °C for 18 h. […]
(§7) inhibited growth of bacteria.

[2] = test system: Staphylococcus aureus RN4220
Description: ×105 colony forming units (CFU) , 21 g/L Müller Hinton Broth (Difco), 5 0 mg/L Ca2+ (adjusted with CaCl2• 2H2O), and 25 mg/L Mg 2+ (adjusted with MgCl 2•6H2O)]. […]
Evaluation of antimicrobial spectra of peptides. The MIC assay was performed according to the Clinical and Laboratory Standards Institute protocols. The antimicrobial activities of the peptides were measured using the broth microdilution method.1 Serial dilutions of peptides were prepared in cation adjusted Müller Hinton Broth. Each dilution (100 µL) was dispensed to each well of the round-bottom plate to obtain final concentrations ranging from 64 µg/m L to 0.0075 µg/m L. Bacteria were grown at 37 °C overnight on Tryptic Soy Broth or Müller Hinton Broth agar plates. Bacterial inoculum was prepared by direct suspension of the colonies in 0.9% saline, and adjusted to obtain OD 625 0.08–0.13 using a spectrophotometer UV -1280 (Shimadzu). The resultant suspension was diluted with cation adjusted Müller Hinton Broth (1/20). The resultant mixture (10 µL) was inoculated to each well of the plates (approximately 5 ×10^4 CFU/well ), mixed, and incubated at 37 °C for 18 h. The MIC value was determined as the minimum concentration that inhibited growth of bacteria. To evaluate the antimicrobial activities of peptides in the presence of serum, 10% bovine calf serum in cation adjusted Müller Hinton Broth was used.

MRSA = test system: MRSA; set-up: method as in PMID 25485686; conditions: cited from earlier work
Text: Lysocin E (1, Fig. 1a) was isolated from Lysobacter sp. as a new antibiotic and structurally determined to be a 37-membered depsipeptide (molecular weight = 1618 Da) with an N-methylated amide and ester linkages. The macrocyclic core of 12 residues contains four different non-proteinogenic D-amino acids (D-Arg-2/7, N-Me-D-Phe-5, D-Gln-9, D-Trp-10) and is appended with (R)-3-hydroxy-5-methylhexanamide.

[3] = test system: Listeria monocytogenes 10403S; assay type: cell-based; conditions: 18 h
Description: as §1, §2, §3, §4, §5, §6, §7

Bacillus cereus JCM20037 = assay type: cell-based; conditions: JCM20037, 18 h
Description: as §1, §2, §3, §4, §5, §6, §7

[4] = test system: Bacillus subtilis JCM2499; assay type: cell-based; conditions: JCM2499, 18 h
Description: as §1, §2, §3, §4, §5, §6, §7

Compound: CC[C@H](C)[C@@H]1NC(=O)[C@@H](Cc2c[nH]c3ccccc23)NC(=O)[C@@H](CCC(N)=O)NC(=O)[C@H](CCC(=O)O)NC(=O)[C@@H](CCCNC(=N)N)NC(=O)[C@H](CC(C)C)NC(=O)[C@@H](Cc2ccccc2)N(C)C(=O)CNC(=O)[C@H](CO)NC(=O)[C@@H](CCCNC(=N)N)NC(=O)[C@@H](NC(=O)C[C@H](O)CC(C)C)[C@@H](C)OC(=O)[C@H]([C@@H](C)O)NC1=O [Peptide 1, Lysocin E] ({Hexanoyl(3R-OH,5-Me)}-T[dR]SG[dNMeF]L[dR]E[dQ][dW]IT; ester 1-C)
- decrease of MIC by adding 10% BCS [1]: 64 fold
- MIC ([1]; 10% BCS (+)): 0.0625 µg/mL (≈ 0.0386 µM)
- MIC ([1]; ATCC 13709, 18 h): 2.0 µg/mL (≈ 1.24 µM)
- MIC ([2]; 10% BCS (+)): 0.125 µg/mL (≈ 0.0773 µM)
- MIC ([2]; BCS free): 4.0 µg/mL (≈ 2.47 µM)
- minimum inhibitory concentration (MIC) against MRSA (MRSA): 4 µg/mL (≈ 2.47 µM)

- MIC [3]: 64 µg/mL (≈ 37.9 µM)
Compound: CC(C)C[C@@H](O)CC(=O)N[C@@H]1C(=O)N[C@H](CCCNC(=N)N)C(=O)N[C@@H](C)C(=O)NCC(=O)N(C)[C@H](Cc2ccccc2)C(=O)N[C@@H](CC(C)C)C(=O)N[C@H](CCCNC(=N)N)C(=O)N[C@@H](CCC(=O)O)C(=O)N[C@H](Cc2ccc(O)cc2)C(=O)N[C@H](Cc2c[nH]c3ccccc23)C(=O)N[C@@H](Cc2ccc(O)cc2)C(=O)N[C@@H]([C@@H](C)O)C(=O)O[C@@H]1C [Peptide A15] ({Hexanoyl(3R-OH,5-Me)}-T[dR]AG[dNMeF]L[dR]E[dY][dW]YT; ester 1-C)

- MIC (Bacillus cereus JCM20037): 16 µg/mL (≈ 9.52 µM)
- MIC [4]: 16 µg/mL (≈ 9.52 µM)
Compound: CC[C@H](C)[C@@H]1NC(=O)[C@@H](Cc2c[nH]c3ccccc23)NC(=O)[C@@H](Cc2ccc(O)cc2)NC(=O)[C@H](CCC(=O)O)NC(=O)[C@@H](CCCNC(=N)N)NC(=O)[C@H](CC(C)C)NC(=O)[C@@H](Cc2ccccc2)N(C)C(=O)CNC(=O)[C@H](CC(=O)O)NC(=O)[C@@H](CCCNC(=N)N)NC(=O)[C@@H](NC(=O)C[C@H](O)CC(C)C)[C@@H](C)OC(=O)[C@H]([C@@H](C)O)NC1=O [Peptide A17] ({Hexanoyl(3R-OH,5-Me)}-T[dR]DG[dNMeF]L[dR]E[dY][dW]IT; ester 1-C)
